The IC50 is the point on the concentration scale where inhibition reaches its midpoint.

Format in all cases: cell-based
One series has as its system HeLa cells. Nature of the series: Cell viability assay (CellTiter-Glo). As to conditions: doses up to 2 μM. As for the experimental part: As described above, the toxicity of RTIs could impair their ability to halt or block the harmful effects of senescent cells and their ability to prevent or reverse age-related inflammation and disorders.
HeLa cells were treated with the different concentrations of the eight RTI compounds for 48 hours. Cell viability was measured with CellTiter-Glo® luminescent cell viability assay (Promega®) and presented as percentage of cell viability versus untreated cells. Staurosporine, known to induce cell death, was used as a control.
In general terms: In ATP-based viability assays light output follows the ATP content of the culture.

Another series concerns human LINE-1. The experiment in a line: Human LINE-1 retrotransposition assay (dual luciferase pYX017 reporter, HeLa cells, Table 11). As for the experimental part:
Assays were performed as described in Xie et al., 2011^151 with several modifications. The reporter assay was performed in 96 well white Optical bottom plates. 6000 HeLa cells were seeded in each well 24 hours prior transfection and compound treatment. All compounds were resuspended in DMSO. Stock solution concentrations varied from 50 mM to 1.25 mM depending of the solubility of the compound. Serial dilutions (1:3) were prepared in DMSO. Ten different concentrations of each compound were tested in triplicate. Medium containing different concentrations of the compounds were prepared by adding 2 μL of the compound dilution to 1 mL of the culture medium. The final concentration of DMSO in the medium was 0.2%. FuGENE® HD transfection reagent (Promega) was used to transfect the plasmid pYX016 into the cells. The transfection mix was prepared in OpiMEM (Thermo Fisher) using a reagent to DNA ratio of 3.5:1 according to manufacturer's instructions. Culture medium was removed from the cells and discarded. The transfection mix (5 μL) was mixed with the compound containing medium (100 μL/well) and this was added onto the cells of each well. Cells were incubated for 48H at 37° C./5% CO2. Luciferase reporter activity was quantified with the Dual-Luciferase® Reporter Assay System (Promega) according to manufacturer's instructions for multiwell plates with the following modification: Cells were lysed directly on the multiwell plate with 30 μL of the passive lysis buffer (PLB) for 20 min at room temperature, with gentle shaking to ensure complete cell lysis (instead of 20 μL of PLB for 15 min). Firefly and Renilla luciferase signals were measured using a SpectraMax i3x Multi-Mode Microplate Reader. […] Relative L1 activity was calculated as Firefly/Renilla *10,000. […] The experiment was performed twice, independently. […] Because the human construct yields a lower signal, compounds were incubated with cells for 72 hours instead of 48 hours, and cells were seeded at a density of 2000/well instead of 6000/well. In addition, the transfection reagent to DNA ratio was 2:1 instead of 3.5:1.

A further series relates to mouse LINE-1. The experiment in a line: Mouse LINE-1 retrotransposition assay (dual luciferase pYX016 reporter, HeLa cells). The procedure: Elvucitabine was obtained by custom synthesis. […] HeLa cervical cancer cells were cultivated at 37° C. in a humidified 5% CO2 incubator in Dulbecco's Modified Eagle's Medium (DMEM)-high glucose, with 4500 mg/L glucose, L-glutamine, sodium pyruvate and sodium bicarbonate (Sigma), supplemented with 10% of heat inactivated fetal bovine serum (Thermo Fisher). Assays were performed as described in Xie et al., 2011^151 with several modifications. The reporter assay was performed in 96 well white Optical bottom plates. 6000 HeLa cells were seeded in each well 24 hours prior transfection and compound treatment. All compounds were resuspended in DMSO. Stock solution concentrations varied from 50 mM to 1.25 mM depending of the solubility of the compound. Serial dilutions (1:3) were prepared in DMSO. Ten different concentrations of each compound were tested in triplicate. Medium containing different concentrations of the compounds were prepared by adding 2 μL of the compound dilution to 1 mL of the culture medium. The final concentration of DMSO in the medium was 0.2%. FuGENE® HD transfection reagent (Promega) was used to transfect the plasmid pYX016 into the cells. The transfection mix was prepared in OpiMEM (Thermo Fisher) using a reagent to DNA ratio of 3.5:1 according to manufacturer's instructions. Culture medium was removed from the cells and discarded. The transfection mix (5 μL) was mixed with the compound containing medium (100 μL/well) and this was added onto the cells of each well. Cells were incubated for 48H at 37° C./5% CO2. Luciferase reporter activity was quantified with the Dual-Luciferase® Reporter Assay System (Promega) according to manufacturer's instructions for multiwell plates with the following modification: Cells were lysed directly on the multiwell plate with 30 μL of the passive lysis buffer (PLB) for 20 min at room temperature, with gentle shaking to ensure complete cell lysis (instead of 20 μL of PLB for 15 min). Firefly and Renilla luciferase signals were measured using a SpectraMax i3x Multi-Mode Microplate Reader. […] Relative L1 activity was calculated as Firefly/Renilla *10,000. […] The experiment was performed twice, independently.

Structures are written as SMILES. Like-named read-outs stand apart in the source and are kept apart here.

For `Nc1nc(=O)n([C@@H]2C=C[C@H](CO)O2)cc1F` [Elvucitabine], the “toxicity in the cell viability assay” value with HeLa cells is “without inducing toxicity”. Besides, the half-inhibitory concentration (IC50) was 94 nM in the series with human LINE-1 (pYX017, 72 H post-transfection, read-out: Human L1 activity inhibition IC50, Exp. 1); around 100 nM with human LINE-1 (read-out: human L1 inhibition IC50); 116 nM in the series with mouse LINE-1 (pYX016, 48 H post-transfection, read-out: Mouse L1 activity inhibition IC50, Exp. 1); 106 nM in the series on mouse LINE-1 (pYX016, 48 H post-transfection, read-out: Mouse L1 activity inhibition IC50, Exp. 2); 111 nM with mouse LINE-1 (pYX016, 48 H, n = 2, read-out: Mouse L1 activity inhibition IC50, Average); around 100 nM in the series with mouse LINE-1 (read-out: mouse L1 inhibition IC50).

For the origin of these results see US12246022B2, “Compositions and methods for treating, preventing or reversing age associated inflammation and disorders” (BROWN UNIVERSITY, priority 2019, dated 2025).
